This is an account of results in US20240091149A1, “COMPOSITIONS AND METHODS FOR IMPROVING GASTROINTESTINAL ABSORPTION OF ELECTROLYTES” (IGH NATURALS, INC., priority 2020, published 2024).

Each structure is given as a SMILES string.

This assay deals with HT-29-MTX intestinal cells. The assay is described as follows: IL-10 secretion by intestinal cells. The following applies: cells treated with cisplatin alone; FIG. 3. In kind it is cell-based. The text has this:
IL-10 secretion peaked between 24-48 hrs and preceded mucin secretion (72-96 hr).

Turning to `N.N.[Cl][Pt][Cl]` [cisplatin], the IL-10 secretion result is reported as “secreted more IL-10”.
